How the values were obtained:
Experiment in all cases: Kinase profiling
Assay type in all cases: biochemical
Rsk4(h) = target: T1, Rsk4(h) (Homo sapiens, UniProt Q9UK32)
T1 construct: purchased Eurofins Cerep SA (KinaseProfiler)
Protocol: (§1) 380 kinases inhibitory activities of SKLB-D18 were conducted by Eurofins Cerep SA. The result was illustrated by kinase tree (http://www.kinhub.org/kinmap/).

NEK7(h) = target: T2, NEK7(h) (Homo sapiens, UniProt Q8TDX7)
T2 construct: purchased Eurofins Cerep SA (KinaseProfiler)
Protocol: as §1

LTK(h) = target: T3, LTK(h) (Homo sapiens, UniProt P29376)
T3 construct: purchased Eurofins Cerep SA (KinaseProfiler)
T3 sequence (P29376 17-864): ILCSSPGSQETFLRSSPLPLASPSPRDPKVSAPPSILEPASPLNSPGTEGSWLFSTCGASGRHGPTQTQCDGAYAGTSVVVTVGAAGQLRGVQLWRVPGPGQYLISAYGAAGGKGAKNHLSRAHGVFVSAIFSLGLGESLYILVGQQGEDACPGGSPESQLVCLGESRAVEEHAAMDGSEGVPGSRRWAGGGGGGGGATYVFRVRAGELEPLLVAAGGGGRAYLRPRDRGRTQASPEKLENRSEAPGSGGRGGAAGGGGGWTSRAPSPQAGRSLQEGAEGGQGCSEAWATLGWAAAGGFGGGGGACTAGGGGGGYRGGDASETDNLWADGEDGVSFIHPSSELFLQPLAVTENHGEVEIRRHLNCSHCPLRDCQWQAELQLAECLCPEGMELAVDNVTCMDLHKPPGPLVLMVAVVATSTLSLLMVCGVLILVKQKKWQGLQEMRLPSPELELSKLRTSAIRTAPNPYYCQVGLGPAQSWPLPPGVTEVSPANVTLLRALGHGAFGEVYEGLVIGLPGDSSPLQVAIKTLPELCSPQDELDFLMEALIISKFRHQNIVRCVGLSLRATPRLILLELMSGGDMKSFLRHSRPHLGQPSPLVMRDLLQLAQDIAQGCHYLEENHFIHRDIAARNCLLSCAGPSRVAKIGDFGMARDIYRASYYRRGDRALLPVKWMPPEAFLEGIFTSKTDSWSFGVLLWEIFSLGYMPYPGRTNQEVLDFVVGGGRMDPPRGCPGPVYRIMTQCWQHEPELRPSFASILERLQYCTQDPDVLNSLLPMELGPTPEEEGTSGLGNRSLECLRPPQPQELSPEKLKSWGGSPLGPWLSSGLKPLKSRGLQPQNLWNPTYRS
Protocol: as §1

ErbB4(h) = target: T4, ErbB4(h) (Homo sapiens, UniProt Q15303)
T4 construct: purchased Eurofins Cerep SA (KinaseProfiler)
Protocol: as §1

PKCε(h) = target: T5, PKCε(h) (Homo sapiens, UniProt Q02156)
T5 construct: purchased Eurofins Cerep SA (KinaseProfiler)
Protocol: as §1

Ret(h) = target: T6, Ret(h) (Homo sapiens, UniProt P07949)
T6 construct: purchased Eurofins Cerep SA (KinaseProfiler)
Protocol: as §1

AMPKα1(h) = target: T7, AMPKα1(h) (Homo sapiens, UniProt Q13131)
T7 construct: purchased Eurofins Cerep SA (KinaseProfiler)
Protocol: as §1

eEF-2K(h) = target: T8, eEF-2K(h) (Homo sapiens, UniProt O00418)
T8 construct: purchased Eurofins Cerep SA (KinaseProfiler)
Protocol: as §1

LKB1(h) = target: T9, LKB1(h) (Homo sapiens, UniProt Q15831)
T9 construct: purchased Eurofins Cerep SA (KinaseProfiler)
Protocol: as §1

PDGFRβ(h) = target: T10, PDGFRβ(h) (Homo sapiens, UniProt P09619)
T10 construct: purchased Eurofins Cerep SA (KinaseProfiler)
Protocol: as §1

LRRK2(h) = target: T11, LRRK2(h) (Homo sapiens, UniProt Q5S007)
T11 construct: purchased Eurofins Cerep SA (KinaseProfiler)
Protocol: as §1

MELK(h) = target: T12, MELK(h) (Homo sapiens, UniProt Q14680)
T12 construct: purchased Eurofins Cerep SA (KinaseProfiler)
Protocol: as §1

PKBα(h) = target: T13, PKBα(h) (Homo sapiens, UniProt P31749)
T13 construct: purchased Eurofins Cerep SA (KinaseProfiler)
T13 sequence (P31749 whole entry): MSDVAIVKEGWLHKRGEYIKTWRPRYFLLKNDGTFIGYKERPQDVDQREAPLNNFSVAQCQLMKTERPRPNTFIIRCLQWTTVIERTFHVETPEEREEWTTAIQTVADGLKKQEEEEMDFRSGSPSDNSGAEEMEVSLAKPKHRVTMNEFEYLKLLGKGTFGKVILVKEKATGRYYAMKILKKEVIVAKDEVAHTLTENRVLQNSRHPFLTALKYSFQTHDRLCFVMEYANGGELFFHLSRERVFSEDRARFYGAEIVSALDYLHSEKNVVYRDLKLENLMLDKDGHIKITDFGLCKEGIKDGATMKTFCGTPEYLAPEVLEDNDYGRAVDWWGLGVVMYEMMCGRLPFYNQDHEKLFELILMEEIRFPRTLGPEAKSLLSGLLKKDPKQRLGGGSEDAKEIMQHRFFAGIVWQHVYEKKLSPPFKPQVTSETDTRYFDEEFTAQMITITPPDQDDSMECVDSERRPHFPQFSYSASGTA
Protocol: as §1

CDKL1(h) = target: T14, CDKL1(h) (Homo sapiens, UniProt Q00532)
T14 construct: purchased Eurofins Cerep SA (KinaseProfiler)
Protocol: as §1

mTOR(h) = target: T15, mTOR(h) (Homo sapiens, UniProt P42345)
T15 construct: purchased Eurofins Cerep SA (KinaseProfiler)
Protocol: as §1

Itk(h) = target: T16, Itk(h) (Homo sapiens, UniProt Q08881)
T16 construct: purchased Eurofins Cerep SA (KinaseProfiler)
Protocol: as §1

Flt3(h) = target: T17, Flt3(h) (Homo sapiens, UniProt P36888)
T17 construct: purchased Eurofins Cerep SA (KinaseProfiler)
Protocol: as §1

ChaK1(h) = target: T18, ChaK1(h) (Homo sapiens, UniProt Q96QT4)
T18 construct: purchased Eurofins Cerep SA (KinaseProfiler)
Protocol: as §1

Tec(h) activated = target: T19, Tec(h) activated (Homo sapiens, UniProt P42680)
T19 construct: purchased Eurofins Cerep SA (KinaseProfiler)
Protocol: as §1

[1] = target: T20, PI3 Kinase (p110a/p85a)(h) (Homo sapiens, UniProt P42336)
T20 construct: purchased Eurofins Cerep SA (KinaseProfiler)
Protocol: as §1

CDK1/cyclinB(h) = target: T21, CDK1/cyclinB(h) (Homo sapiens, UniProt P06493)
T21 construct: purchased Eurofins Cerep SA (KinaseProfiler)
Protocol: as §1

CK1γ2(h) = target: T22, CK1γ2(h) (Homo sapiens, UniProt P78368)
T22 construct: purchased Eurofins Cerep SA (KinaseProfiler)
Protocol: as §1

NEK6(h) = target: T23, NEK6(h) (Homo sapiens, UniProt Q9HC98)
T23 construct: purchased Eurofins Cerep SA (KinaseProfiler)
Protocol: as §1

CDK5/p25(h) = target: T24, CDK5/p25(h) (Homo sapiens, UniProt Q00535)
T24 construct: purchased Eurofins Cerep SA (KinaseProfiler)
T24 sequence (Q00535 whole entry): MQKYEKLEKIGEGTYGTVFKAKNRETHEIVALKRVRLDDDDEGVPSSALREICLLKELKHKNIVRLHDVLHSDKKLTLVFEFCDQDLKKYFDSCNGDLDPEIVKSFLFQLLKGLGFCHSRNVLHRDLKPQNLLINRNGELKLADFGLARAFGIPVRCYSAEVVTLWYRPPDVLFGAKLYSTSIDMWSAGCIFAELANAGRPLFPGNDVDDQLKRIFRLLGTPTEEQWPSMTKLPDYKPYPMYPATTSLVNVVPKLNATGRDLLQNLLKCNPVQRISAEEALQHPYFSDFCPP
T24 sequence (Q15078 99-307 partner limits assumed): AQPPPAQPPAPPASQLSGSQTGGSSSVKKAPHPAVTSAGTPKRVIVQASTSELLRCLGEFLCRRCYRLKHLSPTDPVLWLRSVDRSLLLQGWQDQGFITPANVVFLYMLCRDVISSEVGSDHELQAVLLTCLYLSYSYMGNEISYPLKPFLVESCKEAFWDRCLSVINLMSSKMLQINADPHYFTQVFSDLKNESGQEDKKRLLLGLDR
Protocol: as §1

PIP5K1a(h) = target: T25, PIP5K1a(h) (Homo sapiens, UniProt Q99755)
T25 construct: purchased Eurofins Cerep SA (KinaseProfiler)
T25 sequence (Q99755 whole entry): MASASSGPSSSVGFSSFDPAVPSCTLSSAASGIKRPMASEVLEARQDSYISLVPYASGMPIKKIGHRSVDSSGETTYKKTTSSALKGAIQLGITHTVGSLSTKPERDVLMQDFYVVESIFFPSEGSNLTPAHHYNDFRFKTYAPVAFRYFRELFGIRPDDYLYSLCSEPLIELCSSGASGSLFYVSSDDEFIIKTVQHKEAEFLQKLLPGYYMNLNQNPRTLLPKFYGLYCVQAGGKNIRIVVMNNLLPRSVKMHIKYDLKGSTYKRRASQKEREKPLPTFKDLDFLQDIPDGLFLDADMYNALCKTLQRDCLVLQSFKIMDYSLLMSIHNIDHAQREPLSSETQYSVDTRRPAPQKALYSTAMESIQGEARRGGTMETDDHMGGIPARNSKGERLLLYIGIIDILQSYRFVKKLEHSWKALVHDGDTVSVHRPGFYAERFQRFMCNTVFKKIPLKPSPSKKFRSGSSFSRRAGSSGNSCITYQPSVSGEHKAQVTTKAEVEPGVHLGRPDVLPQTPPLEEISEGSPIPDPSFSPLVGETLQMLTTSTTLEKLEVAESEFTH
Protocol: as §1

GRK1(h) = target: T26, GRK1(h) (Homo sapiens, UniProt Q15835)
T26 construct: purchased Eurofins Cerep SA (KinaseProfiler)
Protocol: as §1

NEK4(h) = target: T27, NEK4(h) (Homo sapiens, UniProt P51957)
T27 construct: purchased Eurofins Cerep SA (KinaseProfiler)
Protocol: as §1

Ron(h) = target: T28, Ron(h) (Homo sapiens, UniProt Q04912)
T28 construct: purchased Eurofins Cerep SA (KinaseProfiler)
Protocol: as §1

NIM1(h) = target: T29, NIM1(h) (Homo sapiens, UniProt Q8IY84)
T29 construct: purchased Eurofins Cerep SA (KinaseProfiler)
T29 sequence (Q8IY84 whole entry): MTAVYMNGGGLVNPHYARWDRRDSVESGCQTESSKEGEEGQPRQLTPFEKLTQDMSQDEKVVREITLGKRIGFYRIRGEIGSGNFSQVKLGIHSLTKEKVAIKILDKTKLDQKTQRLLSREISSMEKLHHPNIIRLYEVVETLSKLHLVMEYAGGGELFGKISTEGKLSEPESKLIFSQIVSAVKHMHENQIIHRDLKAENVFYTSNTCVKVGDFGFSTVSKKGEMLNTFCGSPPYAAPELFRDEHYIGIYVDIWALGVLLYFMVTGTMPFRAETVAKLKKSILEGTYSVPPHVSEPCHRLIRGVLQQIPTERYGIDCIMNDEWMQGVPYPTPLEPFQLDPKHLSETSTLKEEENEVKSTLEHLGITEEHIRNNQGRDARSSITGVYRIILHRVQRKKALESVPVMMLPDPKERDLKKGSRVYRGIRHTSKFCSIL
Protocol: as §1

Mnk1(h) = target: T30, Mnk1(h) (Homo sapiens, UniProt Q9BUB5)
T30 construct: purchased Eurofins Cerep SA (KinaseProfiler)
Protocol: as §1

NEK9(h) = target: T31, NEK9(h) (Homo sapiens, UniProt Q8TD19)
T31 construct: purchased Eurofins Cerep SA (KinaseProfiler)
T31 sequence (Q8TD19 whole entry): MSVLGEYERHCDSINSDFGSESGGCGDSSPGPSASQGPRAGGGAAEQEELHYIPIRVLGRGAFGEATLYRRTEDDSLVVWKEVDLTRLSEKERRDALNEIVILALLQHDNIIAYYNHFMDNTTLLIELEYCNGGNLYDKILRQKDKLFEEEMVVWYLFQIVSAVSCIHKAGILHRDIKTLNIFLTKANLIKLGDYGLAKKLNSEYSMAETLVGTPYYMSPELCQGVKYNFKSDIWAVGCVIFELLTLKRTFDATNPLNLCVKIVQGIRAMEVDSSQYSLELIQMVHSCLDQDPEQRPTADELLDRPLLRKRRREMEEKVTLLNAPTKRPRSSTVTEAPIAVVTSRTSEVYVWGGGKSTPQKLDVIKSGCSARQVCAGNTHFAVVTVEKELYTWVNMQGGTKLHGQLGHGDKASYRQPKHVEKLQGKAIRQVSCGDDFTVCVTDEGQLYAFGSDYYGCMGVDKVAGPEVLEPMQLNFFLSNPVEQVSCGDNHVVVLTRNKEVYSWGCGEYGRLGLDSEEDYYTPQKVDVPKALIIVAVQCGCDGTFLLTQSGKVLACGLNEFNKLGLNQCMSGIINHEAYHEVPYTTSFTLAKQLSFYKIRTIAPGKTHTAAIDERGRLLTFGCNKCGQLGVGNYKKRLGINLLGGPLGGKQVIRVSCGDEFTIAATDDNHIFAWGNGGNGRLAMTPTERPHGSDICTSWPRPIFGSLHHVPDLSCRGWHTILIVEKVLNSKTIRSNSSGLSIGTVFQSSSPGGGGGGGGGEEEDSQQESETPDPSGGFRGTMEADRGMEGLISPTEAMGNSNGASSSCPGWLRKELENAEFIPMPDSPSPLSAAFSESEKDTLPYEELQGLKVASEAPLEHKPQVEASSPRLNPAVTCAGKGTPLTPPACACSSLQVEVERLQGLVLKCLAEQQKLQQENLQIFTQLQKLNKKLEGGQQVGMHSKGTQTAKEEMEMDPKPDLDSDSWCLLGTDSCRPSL
Protocol: as §1

CDK5/p35(h) = target: T32, CDK5/p35(h) (Homo sapiens, UniProt Q00535)
T32 construct: purchased Eurofins Cerep SA (KinaseProfiler)
Protocol: as §1

HIPK4(h) = target: T33, HIPK4(h) (Homo sapiens, UniProt Q8NE63)
T33 construct: purchased Eurofins Cerep SA (KinaseProfiler)
T33 sequence (Q8NE63 whole entry): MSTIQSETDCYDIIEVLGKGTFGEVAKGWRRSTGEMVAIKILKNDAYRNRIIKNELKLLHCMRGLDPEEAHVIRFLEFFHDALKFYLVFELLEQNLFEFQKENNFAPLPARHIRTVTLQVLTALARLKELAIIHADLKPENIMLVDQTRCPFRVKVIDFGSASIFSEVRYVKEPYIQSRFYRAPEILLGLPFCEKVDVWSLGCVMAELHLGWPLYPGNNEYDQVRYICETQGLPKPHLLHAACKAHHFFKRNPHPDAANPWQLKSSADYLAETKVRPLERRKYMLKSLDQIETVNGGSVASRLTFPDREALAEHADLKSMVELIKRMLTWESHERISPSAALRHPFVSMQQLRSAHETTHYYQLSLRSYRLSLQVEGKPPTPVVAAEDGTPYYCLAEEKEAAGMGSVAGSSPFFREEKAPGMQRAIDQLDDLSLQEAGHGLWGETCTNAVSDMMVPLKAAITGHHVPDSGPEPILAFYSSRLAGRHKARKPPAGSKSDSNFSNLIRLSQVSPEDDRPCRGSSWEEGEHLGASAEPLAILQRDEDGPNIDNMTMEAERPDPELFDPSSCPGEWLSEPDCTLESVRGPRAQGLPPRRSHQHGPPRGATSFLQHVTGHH
Protocol: as §1

DCAMKL1(h) = target: T34, DCAMKL1(h) (Homo sapiens, UniProt O15075)
T34 construct: purchased Eurofins Cerep SA (KinaseProfiler)
Protocol: as §1

HIPK3(h) = target: T35, HIPK3(h) (Homo sapiens, UniProt Q9H422)
T35 construct: purchased Eurofins Cerep SA (KinaseProfiler)
Protocol: as §1

IR(h), activated = target: T36, IR(h), activated (Homo sapiens, UniProt P06213)
T36 construct: purchased Eurofins Cerep SA (KinaseProfiler)
Protocol: as §1

ACTR2(h) = target: T37, ACTR2(h) (Homo sapiens, UniProt P27037)
T37 construct: purchased Eurofins Cerep SA (KinaseProfiler)
Protocol: as §1

MAPK3(h) = target: T38, MAPK3(h) (Homo sapiens, UniProt P27361)
T38 construct: purchased Eurofins Cerep SA (KinaseProfiler)
T38 sequence (P27361 whole entry): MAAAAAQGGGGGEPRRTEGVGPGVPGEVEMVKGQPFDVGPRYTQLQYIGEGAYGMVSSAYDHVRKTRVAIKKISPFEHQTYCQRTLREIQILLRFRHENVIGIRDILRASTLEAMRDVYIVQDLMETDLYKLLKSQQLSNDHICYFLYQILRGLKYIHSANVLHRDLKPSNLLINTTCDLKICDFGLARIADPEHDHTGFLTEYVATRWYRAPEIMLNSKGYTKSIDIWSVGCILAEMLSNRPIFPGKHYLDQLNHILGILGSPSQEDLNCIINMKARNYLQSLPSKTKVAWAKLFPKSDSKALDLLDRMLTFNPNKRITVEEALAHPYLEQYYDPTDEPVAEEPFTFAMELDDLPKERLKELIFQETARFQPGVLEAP
Protocol: as §1

MRCKβ(h) = target: T39, MRCKβ(h) (Homo sapiens, UniProt Q9Y5S2)
T39 construct: purchased Eurofins Cerep SA (KinaseProfiler)
Protocol: as §1

Wee1B(h) = target: T40, Wee1B(h) (Homo sapiens, UniProt P0C1S8)
T40 construct: purchased Eurofins Cerep SA (KinaseProfiler)
Protocol: as §1

STK32C(h) = target: T41, STK32C(h) (Homo sapiens, UniProt Q86UX6)
T41 construct: purchased Eurofins Cerep SA (KinaseProfiler)
Protocol: as §1

CN(C)Cc1cccc(Nc2ncc(Cl)c(-c3csc(C(=O)NN4CCOCC4)c3)n2)c1 [SKLB-D18, 4-(5-chloro-2-((3-((dimethylamino)methyl)phenyl)amino)pyrimidin-4-yl)-N-morpholinothiophene-2-carboxamide]
inhibition at 1 µM (Rsk4(h)): 63% | inhibition at 1 µM (NEK7(h)): -2% | inhibition at 1 µM (LTK(h)): 38% | inhibition at 1 µM (ErbB4(h)): -16% | inhibition at 1 µM (PKCε(h)): 14% | inhibition at 1 µM (Ret(h)): 81% | inhibition at 1 µM (AMPKα1(h)): 61% | inhibition at 1 µM (eEF-2K(h)): -2% | inhibition at 1 µM (LKB1(h)): 29% | inhibition at 1 µM (PDGFRβ(h)): 21% | inhibition at 1 µM (LRRK2(h)): 65% | inhibition at 1 µM (MELK(h)): 62% | inhibition at 1 µM (PKBα(h)): 12% | inhibition at 1 µM (CDKL1(h)): 48% | inhibition at 1 µM (mTOR(h)): -4% | inhibition at 1 µM (Itk(h)): 23% | inhibition at 1 µM (Flt3(h)): 55% | inhibition at 1 µM (ChaK1(h)): 0% | inhibition at 1 µM (Tec(h) activated): 8% | inhibition at 1 µM [1]: -2% | inhibition at 1 µM (CDK1/cyclinB(h)): 44% | inhibition at 1 µM (CK1γ2(h)): 18% | inhibition at 1 µM (NEK6(h)): 0% | inhibition at 1 µM (CDK5/p25(h)): 55% | inhibition at 1 µM (PIP5K1a(h)): -5% | inhibition at 1 µM (GRK1(h)): 9% | inhibition at 1 µM (NEK4(h)): 66% | inhibition at 1 µM (Ron(h)): 58% | inhibition at 1 µM (NIM1(h)): 50% | inhibition at 1 µM (Mnk1(h)): 62% | inhibition at 1 µM (NEK9(h)): 56% | inhibition at 1 µM (CDK5/p35(h)): 57% | inhibition at 1 µM (HIPK4(h)): 67% | inhibition at 1 µM (DCAMKL1(h)): 17% | inhibition at 1 µM (HIPK3(h)): 64% | inhibition at 1 µM (IR(h), activated): 13% | inhibition at 1 µM (ACTR2(h)): 10% | inhibition at 1 µM (MAPK3(h)): 96% | inhibition at 1 µM (MRCKβ(h)): 15% | inhibition at 1 µM (Wee1B(h)): 49% | inhibition at 1 µM (STK32C(h)): 1%

Source: article PMC11842588, “A first-in-class selective inhibitor of ERK1/2 and ERK5 overcomes drug resistance with a single-molecule strategy” (Signal Transduction and Targeted Therapy, 2025)
